Measurements reported in US12655116B2, “Substituted isophthalic acid diamides” (Bayer Aktiengesellschaft, priority 2020, dated 2026).

Assays:
MATIN [1] = test: Post-emergence herbicidal action against MATIN; type: in vivo, Matricaria inodora; conditions: dosage 20 g/ha
In short: (§1)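 Percent herbicidal action is rated by eye about 3 weeks after treatment against untreated controls, where 100% means dead plants and 0% means like controls. Plants in sandy loam are sprayed on green parts at the one-leaf stage with aqueous WP or EC preparations at 600 to 800 l/ha plus 0.2% wetting agent.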

VIOTR [2] = test: Post-emergence herbicidal action against VIOTR; type: in vivo, Viola tricolor
In short: as §1

ABUTH [3] = test: Pre-emergence herbicidal action against ABUTH; type: in vivo, Abutilon theophrasti
In short: (§2)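 Seeds sown in sandy loam, soil-covered; compound sprayed on soil surface pre-emergence. Application: WP/EC, 600–800 l/ha, 0.2% wetting agent. Readout: visual % damage at 3 weeks.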

SETVI [4] = test: Pre-emergence herbicidal action against SETVI; type: in vivo, Setaria viridis
In short: as §2

PHBPU [5] = test: Pre-emergence herbicidal action against PHBPU; type: in vivo, Pharbitis purpurea; conditions: dosage 80 g/ha
In short: as §2

AVEFA = test: Pre-emergence herbicidal action against AVEFA; type: in vivo, Avena fatua
In short: as §2

ALOMY [6] = test: Pre-emergence herbicidal action against ALOMY; type: in vivo, Alopecurus myosuroides
In short: as §2

VERPE [7] = test: Pre-emergence herbicidal action against VERPE; type: in vivo, Veronica persica
In short: as §2

POLCO = test: Pre-emergence herbicidal action against POLCO; type: in vivo, Polygonum convolvulus; conditions: dosage 80 g/ha
In short: as §2

ECHCG [8] = test: Pre-emergence herbicidal action against ECHCG; type: in vivo, Echinochloa crus-galli
In short: as §2

SETVI [9] = test: Post-emergence herbicidal action against SETVI; type: in vivo, Setaria viridis; conditions: dosage 20 g/ha
In short: as §1

AMARE [10] = test: Pre-emergence herbicidal action against AMARE; type: in vivo, Amaranthus retroflexus
In short: as §2

ALOMY [11] = test: Post-emergence herbicidal action against ALOMY; type: in vivo, Alopecurus myosuroides; conditions: visual assessment about 3 weeks after treatment vs untreated controls
In short: as §1

VIOTR [12] = test: Pre-emergence herbicidal action against VIOTR; type: in vivo, Viola tricolor
In short: as §2

VERPE [13] = test: Post-emergence herbicidal action against VERPE; type: in vivo, Veronica persica
In short: as §1

AMARE [14] = test: Post-emergence herbicidal action against AMARE; type: in vivo, Amaranthus retroflexus; conditions: 20 g/ha, visual assessment about 3 weeks after treatment, 100% = plants have died, 0% = like control plants
In short: as §1

ECHCG [15] = test: Post-emergence herbicidal action against ECHCG; type: in vivo, Echinochloa crus-galli
In short: as §1

PHBPU [16] = test: Post-emergence herbicidal action against PHBPU; type: in vivo, Pharbitis purpurea; conditions: dosage 20 g/ha
In short: as §1

ABUTH [17] = test: Post-emergence herbicidal action against ABUTH; type: in vivo, Abutilon theophrasti; conditions: visual assessment about 3 weeks after treatment vs untreated controls
In short: as §1

MATIN [18] = test: Pre-emergence herbicidal action against MATIN; type: in vivo, Matricaria inodora
In short: as §2

[19] = 80 g/ha, scored visually after 3 weeks vs untreated controls (100% = plants have died, 0% = like control plants)
[20] = 20 g/ha, scored visually after 3 weeks, 100% = plants have died, 0% = like control plants

## CCc1c(C(=O)Nc2nnnn2C)ccc(C(F)(F)F)c1C(=O)NC(C)C1CC1 (stereo not drawn) [Example 1-341]
MATIN [1]
  Post-emergence action against MATIN in %: 80%
VIOTR [2]; 20 g/ha
  Post-emergence action against VIOTR in %: 80%
ABUTH [3]; [19]
  Pre-emergence action against ABUTH (herbicidal activity): 100%
ABUTH [3]; dosage 20 g/ha, scored visually after 3 weeks vs untreated controls, 100% = plants have died, 0% = like control plants
  Pre-emergence action against ABUTH (herbicidal activity in percent): 100%
SETVI [4]; dosage 20 g/ha
  Pre-emergence action against SETVI in %: 80%
SETVI [4]; dosage 80 g/ha
  Pre-emergence action against SETVI in %: 100%
PHBPU [5]
  Pre-emergence action against PHBPU in %: 80%
AVEFA; [20]
  Pre-emergence action against AVEFA: 80%
AVEFA; 80 g/ha, pre-emergence
  Pre-emergence action against AVEFA in %: 90%
ALOMY [6]; [20]
  Pre-emergence action against ALOMY: 80%
ALOMY [6]; 80 g/ha, pre-emergence, scored visually after 3 weeks vs untreated controls (100% = plants have died, 0% = like control plants)
  Pre-emergence action against ALOMY (herbicidal activity): 90%
VERPE [7]; dosage 20 g/ha
  Pre-emergence action against VERPE in %: 80%
VERPE [7]; dosage 80 g/ha
  Pre-emergence action against VERPE in %: 90%
POLCO
  Pre-emergence action against POLCO in %: 80%
ECHCG [8]; 80 g/ha
  Pre-emergence action against ECHCG in %: 90%
SETVI [9]
  Post-emergence action against SETVI in %: 80%
AMARE [10]; 20 g/ha, scored visually after 3 weeks vs untreated controls, 100% = plants have died, 0% = like control plants
  Pre-emergence action against AMARE in %: 100%
AMARE [10]; [19]
  Pre-emergence action against AMARE in %: 100%
ALOMY [11]; dosage 20 g/ha
  Post-emergence action against ALOMY in %: 80%
VIOTR [12]; dosage 20 g/ha
  Pre-emergence action against VIOTR in %: 100%
VIOTR [12]; dosage 80 g/ha
  Pre-emergence action against VIOTR in %: 100%
VERPE [13]; 5 g/ha
  Post-emergence action against VERPE in %: 80%
VERPE [13]; 20 g/ha
  Post-emergence action against VERPE in %: 90%
AMARE [14]
  Post-emergence action at 20 g/ha against AMARE in %: 100%
ECHCG [15]; dosage 5 g/ha
  Post-emergence action against ECHCG in %: 80%
ECHCG [15]; dosage 20 g/ha
  Post-emergence action against ECHCG in %: 90%
PHBPU [16]
  Post-emergence action against PHBPU in %: 80%
ABUTH [17]; dosage 20 g/ha
  Post-emergence action against ABUTH in %: 80%
MATIN [18]; dosage 20 g/ha
  Pre-emergence action against MATIN in %: 100%
MATIN [18]; dosage 80 g/ha
  Pre-emergence action against MATIN in %: 100%

## CCCNC(=O)c1c(C(F)F)ccc(C(=O)Nc2nnnn2CC)c1C [Example 2-344]
MATIN [1]; Tripleurospermum inodorum, 504 h
  pest or weed control at 20 g/ha: 80%
VIOTR [2]; Viola tricolor, 504 h, 5 g/ha
  pest or weed control at 5 g/ha: 90%
VIOTR [2]; Viola tricolor, 504 h, 20 g/ha
  pest or weed control at 20 g/ha: 100%
ABUTH [3]; Abutilon theophrasti, 504 h, 80 g/ha, scored visually after 3 weeks vs untreated controls (100% = plants have died, 0% = like control plants)
  pest or weed control at 80 g/ha: 100%
ABUTH [3]; Abutilon theophrasti, 504 h, dosage 20 g/ha, scored visually after 3 weeks vs untreated controls, 100% = plants have died, 0% = like control plants, read-out: Pre-emergence action against ABUTH (herbicidal activity in percent)
  pest or weed control at 20 g/ha: 100%
SETVI [4]; Setaria viridis, 504 h, dosage 80 g/ha
  pest or weed control at 80 g/ha: 80%
PHBPU [5]; Ipomoea purpurea, 504 h
  pest or weed control at 80 g/ha: 90%
AVEFA; Avena fatua, 504 h, 80 g/ha, pre-emergence
  pest or weed control at 80 g/ha: 80%
ALOMY [6]; Alopecurus myosuroides, 504 h, 80 g/ha, pre-emergence, scored visually after 3 weeks vs untreated controls (100% = plants have died, 0% = like control plants)
  pest or weed control at 80 g/ha: 100%
ALOMY [6]; Alopecurus myosuroides, pre-emergence, 504 h, 20 g/ha, scored visually after 3 weeks, 100% = plants have died, 0% = like control plants
  pest or weed control at 20 g/ha: 80%
VERPE [7]; Veronica persica, 504 h, dosage 80 g/ha
  pest or weed control at 80 g/ha: 80%
POLCO; Fallopia convolvulus, 504 h
  pest or weed control at 80 g/ha: 90%
ECHCG [8]; Echinochloa crus-galli, 504 h, 20 g/ha
  pest or weed control at 20 g/ha: 90%
ECHCG [8]; Echinochloa crus-galli, 504 h, 80 g/ha
  pest or weed control at 80 g/ha: 100%
SETVI [9]; Setaria viridis, 504 h
  pest or weed control at 20 g/ha: 80%
AMARE [10]; Amaranthus retroflexus, 504 h, 20 g/ha, scored visually after 3 weeks vs untreated controls, 100% = plants have died, 0% = like control plants
  pest or weed control at 20 g/ha: 100%
AMARE [10]; Amaranthus retroflexus, 504 h, 80 g/ha, scored visually after 3 weeks vs untreated controls, 100% = plants have died, 0% = like control plants
  pest or weed control at 80 g/ha: 100%
ALOMY [11]; Alopecurus myosuroides, 504 h, dosage 5 g/ha
  pest or weed control at 5 g/ha: 80%
ALOMY [11]; Alopecurus myosuroides, 504 h, dosage 20 g/ha
  pest or weed control at 20 g/ha: 90%
VIOTR [12]; Viola tricolor, 504 h, dosage 20 g/ha
  pest or weed control at 20 g/ha: 80%
VIOTR [12]; Viola tricolor, 504 h, dosage 80 g/ha
  pest or weed control at 80 g/ha: 100%
VERPE [13]; Veronica persica, 504 h, 20 g/ha
  pest or weed control at 20 g/ha: 80%
AMARE [14]; Amaranthus retroflexus, 504 h
  pest or weed control at 20 g/ha: 100%
ECHCG [15]; Echinochloa crus-galli, 504 h, dosage 5 g/ha
  pest or weed control at 5 g/ha: 80%
ECHCG [15]; Echinochloa crus-galli, 504 h, dosage 20 g/ha
  pest or weed control at 20 g/ha: 90%
PHBPU [16]; Ipomoea purpurea, 504 h
  pest or weed control at 20 g/ha: 80%
ABUTH [17]; Abutilon theophrasti, 504 h, dosage 5 g/ha
  pest or weed control at 5 g/ha: 90%
ABUTH [17]; Abutilon theophrasti, 504 h, dosage 20 g/ha
  pest or weed control at 20 g/ha: 90%
MATIN [18]; Tripleurospermum inodorum, 504 h, dosage 20 g/ha
  pest or weed control at 20 g/ha: 100%
MATIN [18]; Tripleurospermum inodorum, 504 h, dosage 80 g/ha
  pest or weed control at 80 g/ha: 100%
